Experimental data from US20240197712A1, “TGF-BETA INHIBITION FOR IMMUNODEFICIENCY VIRUS REACTIVATION FROM LATENCY, ENHANCEMENT OF IMMUNODEFICIENCY VIRUS-SPECIFIC RESPONSES AND IMMUNODEFICIENCY VIRUS CURE” (Northwestern University, priority 2022, published 2024).

Legend:
primary CD4+ T cells = assay: Primary CD4+ T cell model of HIV-1 latency, p24 ICS; assay type: cell-based, human; conditions: primary CD4+ T cells infected with HIV ADA; PMA 100 ng/ml; TGF-β1 10 ng/ml or galunisertib 1 μM
Experimental: Next, the impact of TGF-β1 on a primary model of HIV-1 latency was tested using freshly isolated CD4+ T cells. The experiment was based on the model by Berkhout and colleagues (50) with some modifications (FIG. 1F). Specifically, CD4+ T cells were isolated from HIV-1 uninfected, de-identified donor PBMC and activated them with PHA and IL-2 for 3 days before infection via spinoculation with HIV ADA. After extensive wash of the viral inoculum, cells were cultured 48 hrs in presence of T20 (enfuvirtide) to avoid viral spread beyond the cells with initial integrations. The overall initial infection achieved was very low despite the spinoculation step (˜0.1% of p24-gag+ cells, FIGS. 3A-3B).
Blood from de-identified donors was obtained from the New York Blood Bank and used as source of CD4 T cells for the primary model of HIV latency in vitro. Total CD4+ T cells were isolated with the CD4 T cells isolation kit (Miltenyi) and activated with 5 μg/ml of PHA and 50 U/ml of IL-2 for 3 days. After washing out the PHA, cells were infected with 200TCID50 of HIV-ADA (NIH HIV Reagent Program) in 12 or 24 wells/plates and spinoculated at 1200 g for 2 hrs at 25° C. After additional 3 hrs of incubation at 37° C., viral inoculum was washed and cells plated in presence of T20 (Enfurtivide acetate salt, 1 μM NIH AIDS reagent program). […]

ACH-2 cells = assay: PMA-induced HIV reactivation in ACH-2 cells, intracellular p24 staining; assay type: cell-based
Experimental: ACH2 cells and U1 cells were obtained through the NIH HIV Reagent Program, Division of AIDS, NIAID, NIH (contributed by Dr. Thomas Folks). […] In the HIV latency reactivation conditions, PMA (Phorbol 12-myristate 13-acetate, SigmaAldrich) was added at 100 ng/ml together with galunisertib or TGF-β1. After 18 hrs, cells were stained intracellularly for p24 using the KC57 antibody (NIH HIV Reagent Program) as previously described (74).

U1 cells [1] = assay: PMA-induced HIV reactivation in U1 cells, intracellular p24 staining; assay type: cell-based; conditions: U1 cells
Experimental: ACH2 cells and U1 cells were obtained through the NIH HIV Reagent Program, Division of AIDS, NIAID, NIH (contributed by Dr. Thomas Folks). Cells ([…]) were cultured in triplicates in RPMI with 10% FBS and Pen/Strep in presence of TGF-β1 (10 ng/ml R&D systems), TGF-β1 and galunisertib (1 μM MedChemExpress), galunisertib alone or mock treated. In the HIV latency reactivation conditions, PMA (Phorbol 12-myristate 13-acetate, SigmaAldrich) was added at 100 ng/ml together with galunisertib or TGF-β1. After 18 hrs, cells were stained intracellularly for p24 using the KC57 antibody (NIH HIV Reagent Program) as previously described (74).

U1 cells [2] = assay: DC-driven HIV reactivation from U1 cells (moDC co-culture); assay type: cell-based; conditions: moDCs treated with TGF-β1 10 ng/ml for last 2 days, with or without galunisertib; 18 hrs co-culture
Experimental: (§1) CD14^+ cells were isolated from PBMC using the Miltenyi CD14^+ beads. Monocyte-derived DCs (moDCs) were obtained from CD14+ cells cultured in GM-CSF and IL-4 as previously described (55). At day 4 of moDCs differentiation, TGF-β1 (10 ng/ml R&D systems) was added to the moDCs to generate the TGF-β-DCs (or both TGF-β1 and galunisertib). At day 6, 2 days after TGF-1 addition, moDCs were phenotyped (in 3 donors; See Table 2 for antibodies list) and co-cultured with eFluor670 (eBioscience)-labelled U1 at 3:1 U1:DC ratio (5 donors). After 18 hrs of co-culture, cells were stained for p24 intracellularly as described above.

moDCs = assay: moDC phenotyping by flow cytometry; assay type: cell-based, human; conditions: moDCs generated in the presence of TGF-β1
Experimental: as §1

TGF-β1: exogenous TGF-β1 cytokine (R&D systems) added to cultures at 10 ng/ml
PMA-induced frequency of p24-gag+ cells (primary CD4+ T cells): significantly inhibited
decrease of the frequency of p24-gag+ cells in PMA-stimulated cultures (ACH-2 cells; ACH-2 cells, PMA 100 ng/ml, TGF-β1 10 ng/ml): ~20%
baseline p24-gag levels in absence of PMA (ACH-2 cells; ACH-2 cells, TGF-β1 10 ng/ml): smaller but consistent decrease
effect on p24+ cells in X-Vivo 15 medium without FBS (ACH-2 cells; control experiments, U1 and ACH-2, no FBS): more pronounced
frequency of p24-gag+ cells in unstimulated cultures (U1 cells [1]; no PMA, TGF-β1 10 ng/ml or galunisertib 1 μM alone): below the baseline level
reduction of the PMA driven increase in the frequency of p24-gag+ cells (U1 cells [1]; PMA 100 ng/ml, TGF-β1 10 ng/ml, 18 hrs): ~20%
frequency of p24-gag+ U1 cells in cocultures with TGF-β1-treated DCs versus untreated DCs (U1 cells [2]): significantly less
DEC-205 expression on moDCs (moDCs): significantly lower
